According to patent US8785404B2, “Urea compounds” (Eli Lilly and Company, priority 2012, dated 2014):

Assays:
[1] = biological target: T1, human SGLT1 (Homo sapiens, UniProt P13866); experiment: 14C-AMG uptake assay, human SGLT1 in CHO-K1 cells; type: cell-based
T1 sequence (P13866 1-664): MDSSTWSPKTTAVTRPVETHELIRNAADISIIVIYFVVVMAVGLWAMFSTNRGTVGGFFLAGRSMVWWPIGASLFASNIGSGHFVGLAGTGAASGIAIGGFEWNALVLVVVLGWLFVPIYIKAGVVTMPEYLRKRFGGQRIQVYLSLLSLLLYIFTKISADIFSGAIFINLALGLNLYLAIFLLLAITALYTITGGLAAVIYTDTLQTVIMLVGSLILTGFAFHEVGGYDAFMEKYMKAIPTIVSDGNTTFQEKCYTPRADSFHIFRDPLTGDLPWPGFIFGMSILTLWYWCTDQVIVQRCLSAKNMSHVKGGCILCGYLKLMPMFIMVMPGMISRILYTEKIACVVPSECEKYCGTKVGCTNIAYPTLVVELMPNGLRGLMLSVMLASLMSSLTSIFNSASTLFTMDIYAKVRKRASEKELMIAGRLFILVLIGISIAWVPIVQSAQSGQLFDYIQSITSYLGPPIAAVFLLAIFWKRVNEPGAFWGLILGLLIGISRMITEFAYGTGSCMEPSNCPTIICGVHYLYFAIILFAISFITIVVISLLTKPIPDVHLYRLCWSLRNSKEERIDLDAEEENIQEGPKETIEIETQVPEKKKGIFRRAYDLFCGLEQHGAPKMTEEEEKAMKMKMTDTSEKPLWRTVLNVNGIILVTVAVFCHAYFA
Text: (§1) The cDNA encoding human SGLT1 (slc5a1, NM_000343), human SGLT2 (slc5a2, NM_003041) and mouse SGLT1 (slc5a1, NM_019810.4) are purchased from Openbiosystems, Invitrogen and Openbiosystems, respectively. The cDNA is cloned into pcDNA3.1+ for mammalian expression and is stably transfected into Chinese hamster ovary (CHO)-K1 cells using standard mammalian transfection procedures. An SGLT-expressing sub-clone of each over-expressing cell line is selected based on resistance to neomycin (Geneticin, Invitrogen) and activity in the ^14C-α-methyl-D-glucopyranoside (^14C-AMG) uptake assay (see below). Stable SGLT-expressing cells are maintained using standard cell culture techniques.
(§2) The SGLT activity is measured as sodium-dependent ^14C-AMG uptake in the above cell lines described as follows. One hundred μL of culture medium containing 30,000 cells are seeded to each well of a 96-well BioCoat poly-D-lysine plate (Becton Dickson) and cultured at 37° C. overnight. The culture medium is aspirated and cells are washed twice with 200 μL of Reaction Buffer (140 mM NaCl, 2 mM KCl, 1 mM CaCl2, MgCl2, and 14 mM N-2-hydroethylpiperrazine-N′-2-ethanesulfonic acid (Hepes), pH 7.5). The excess buffer is tapped out onto paper towels. Thirty-five μL of Reaction Buffer are added to each well. […] After mixing, the scintillation signal in the plate is counted in a MicroBeta (PerkinElmer). […]

[2] = biological target: T2, human SGLT2 (Homo sapiens, UniProt P31639); experiment: 14C-AMG uptake assay, human SGLT2 in CHO-K1 cells; type: cell-based; conditions: sodium-dependent 14C-AMG uptake, n = 5
T2 sequence (P31639 1-672): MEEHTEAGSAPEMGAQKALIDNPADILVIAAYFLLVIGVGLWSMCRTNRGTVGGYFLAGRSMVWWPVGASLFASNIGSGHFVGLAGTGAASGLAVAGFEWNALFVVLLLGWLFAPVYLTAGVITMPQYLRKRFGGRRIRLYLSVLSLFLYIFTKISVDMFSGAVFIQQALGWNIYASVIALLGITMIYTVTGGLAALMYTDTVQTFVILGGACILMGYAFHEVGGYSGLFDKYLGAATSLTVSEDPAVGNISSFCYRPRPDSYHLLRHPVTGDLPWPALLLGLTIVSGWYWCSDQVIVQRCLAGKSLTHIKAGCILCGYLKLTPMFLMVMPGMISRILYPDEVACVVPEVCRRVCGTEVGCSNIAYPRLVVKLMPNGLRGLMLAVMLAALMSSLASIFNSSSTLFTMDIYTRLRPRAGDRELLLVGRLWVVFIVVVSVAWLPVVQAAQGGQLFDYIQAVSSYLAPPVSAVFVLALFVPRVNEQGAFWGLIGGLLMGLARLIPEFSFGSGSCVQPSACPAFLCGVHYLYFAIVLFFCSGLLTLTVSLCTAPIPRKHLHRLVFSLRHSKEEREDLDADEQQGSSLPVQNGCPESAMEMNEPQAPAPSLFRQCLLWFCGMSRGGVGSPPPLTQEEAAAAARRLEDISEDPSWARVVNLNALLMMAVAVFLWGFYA
Text: as §1, §2

[3] = system: C57Bl/6 mice; experiment: Glucose lowering effects in oral glucose tolerance test (OGTT); type: in vivo, mouse; conditions: for Glucose, 20 Minute / Glucose, 40 Minute / Glucose, 60 Minute / Glucose, 120 Minute / Glucose, 0 Minute / Baseline Adjusted AUC (glucose) / Glucose Cmax / Glucose Tmax: 10 mg/kg oral, mean ± SE; for Glucose, 20 Minute: 20 min after dextrose 3 g/kg; for Glucose, 40 Minute: 40 min after dextrose 3 g/kg; for Glucose, 60 Minute: 60 min after dextrose 3 g/kg; for Glucose, 120 Minute: 120 min after dextrose 3 g/kg; for Glucose, 0 Minute: baseline before dextrose 3 g/kg
Description: The test compound is formulated by adding a vehicle of 1% hydroxyethylcellulose, 0.25% Tween® 80 w/antifoam 0.05% to preweighed test compound to make a 1 mg/ml solution. The mixture is probe sonicated for approximately 1 minute. A stir bar is added, and the resulting suspension is stirred continuously throughout dosing.
Single housed C57Bl/6 mice are weighed and body weights used to determine study groups (n=5), within a working range of 26-30 g. After grouping, all mice are fasted overnight by removing access to food, late afternoon before test day. At the same time, two groups of mice are orally gavaged with 10 ml/kg test compound preparation or vehicle. Animals are dosed thirty seconds apart. […] The following morning, the remaining mice are weighed and orally gavaged using the same protocol as the previous day.
At five, eight and eighteen hours after each respective compound treatment is started, a baseline blood sample is taken for measuring glucose (from the first animal, via tail snip). The animal is then immediately given an oral dose of 50% dextrose (Hospira®) at 3 g/kg. Blood samples are taken for glucose, exactly thirty seconds apart, by tail vein so that blood is collected in each animal at 20, 40, 60 and 120 minutes after the dextrose dose.

[4] = biological target: T3, mouse SGLT1 (Mus musculus, UniProt Q8C3K6); experiment: 14C-AMG uptake assay, mouse SGLT1 in CHO-K1 cells; type: cell-based; conditions: sodium-dependent 14C-AMG uptake, n = 5
T3 sequence (Q8C3K6 1-665): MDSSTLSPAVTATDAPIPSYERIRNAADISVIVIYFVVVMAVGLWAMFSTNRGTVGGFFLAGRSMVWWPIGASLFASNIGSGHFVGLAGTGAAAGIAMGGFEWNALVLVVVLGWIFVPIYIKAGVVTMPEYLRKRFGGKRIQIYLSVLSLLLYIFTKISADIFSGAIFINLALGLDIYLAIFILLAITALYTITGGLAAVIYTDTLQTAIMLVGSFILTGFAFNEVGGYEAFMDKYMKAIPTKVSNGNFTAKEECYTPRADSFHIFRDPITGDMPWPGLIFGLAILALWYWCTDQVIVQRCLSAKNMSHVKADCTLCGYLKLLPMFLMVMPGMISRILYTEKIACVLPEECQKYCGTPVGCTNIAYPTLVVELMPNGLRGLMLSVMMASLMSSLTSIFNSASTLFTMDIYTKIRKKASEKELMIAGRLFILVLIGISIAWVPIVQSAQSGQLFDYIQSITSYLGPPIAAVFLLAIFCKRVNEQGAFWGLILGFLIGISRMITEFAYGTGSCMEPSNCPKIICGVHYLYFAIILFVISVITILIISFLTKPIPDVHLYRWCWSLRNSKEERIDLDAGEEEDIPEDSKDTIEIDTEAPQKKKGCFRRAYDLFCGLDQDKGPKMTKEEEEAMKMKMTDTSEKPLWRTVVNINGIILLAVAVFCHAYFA
Text: as §1, §2

## Cc1cc(/C=C/CCN2CCCC3(CCN(C(=O)CNC(=O)NCC(C)C)CC3)C2)ccc1Cc1c(O[C@@H]2O[C@H](CO)[C@@H](O)[C@H](O)[C@H]2O)n[nH]c1C(C)C [Example 1, 1-(2-{2-[(3E)-4-(4-{[3-(beta-D-glucopyranosyloxy)-5-(propan-2-yl)-1H-pyrazol-4-yl]methyl}-3-methylphenyl)but-3-en-1-yl]-2,9-diazaspiro[5.5]undec-9-yl}-2-oxoethyl)-3-(2-methylpropyl)urea]
[1]; in vitro, human and mouse SGLT1 vs human SGLT2
  Potency at SGLT1 relative to human SGLT2 (in words): more potent at human and mouse SGLT1 than at human SGLT2
[1]; sodium-dependent 14C-AMG uptake, CHO-K1 cells, n = 5
  IC50: 0.0173 ± 0.0162 µM
[2]
  IC50: 0.171 ± 0.026 µM
[3]; OGTT @ 5 hr post dose
  Glucose, 20 Minute: 124.7 ± 7.66 mg/dL
  Glucose, 40 Minute: 139.2 ± 7.69 mg/dL
  Glucose, 60 Minute: 133.2 ± 6.24 mg/dL
  Glucose, 120 Minute: 108.7 ± 4.93 mg/dL
  Glucose, 0 Minute: 75.9 ± 3.21 mg/dL
  Baseline Adjusted AUC (glucose): 2815 ± 194 mg/dL
  Glucose Cmax: 140.2 ± 7.48 mg/dL
  Glucose Tmax: 56 ± 16 min
[3]; OGTT @ 8 hrs post dose
  Glucose, 20 Minute: 142.4 ± 7.4 mg/dL
  Glucose, 40 Minute: 168.1 ± 8.37 mg/dL
  Glucose, 60 Minute: 171.2 ± 10.1 mg/dL
  Glucose, 120 Minute: 113.6 ± 4.25 mg/dL
  Glucose, 0 Minute: 75.5 ± 4.42 mg/dL
  Baseline Adjusted AUC (glucose): 4147 ± 456 mg/dL
  Glucose Cmax: 175.1 ± 9.3 mg/dL
  Glucose Tmax: 52 ± 4.9 min
[3]; OGTT @ 18 hrs post dose
  Glucose, 20 Minute: 196.0 ± 16.6 mg/dL
  Glucose, 40 Minute: 216.1 ± 15.0 mg/dL
  Glucose, 60 Minute: 188.7 ± 13.8 mg/dL
  Glucose, 120 Minute: 110.3 ± 5.74 mg/dL
  Glucose, 0 Minute: 78.7 ± 8.81 mg/dL
  Baseline Adjusted AUC (glucose): 6194 ± 406 mg/dL
  Glucose Cmax: 216.1 ± 15.0 mg/dL
  Glucose Tmax: 44 ± 4.0 min
[3]; during all three OGTTs
  Average maximum concentration of plasma glucose (Cmax) (in words): decreases
  Average time for glucose to reach maximum concentration (Tmax) (in words): increasing
  Baseline adjusted glucose AUC (in words): dose dependent decrease
[3]; normal glycemic C57Bl/6 mouse, five, eight or eighteen hours after administration
  Glucose excursion after oral bolus of 50% dextrose (in words): decrease in the glucose excursion
[4]
  IC50: 0.0073 ± 0.0029 µM
